Laboratory results from PubChem BioAssay (NCI).
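Interpolation was linear, between the two tested concentrations surrounding the appropriate level; five concentrations were tested over 48 hours in 96-well plates. Here, GI50 denotes the concentration required for 50% inhibition of growth. At the TGI there is no net growth.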

Legend:
Assay in all cases: growth of human tumour cells (NCI), 48 h
CCRF-CEM leukemia = system: CCRF-CEM leukemia
OVCAR-4 ovarian = system: OVCAR-4 ovarian
SF-539 CNS = system: SF-539 CNS
SW-620 colon = system: SW-620 colon
SK-MEL-5 melanoma = system: SK-MEL-5 melanoma
SK-MEL-28 melanoma = system: SK-MEL-28 melanoma
UO-31 renal = system: UO-31 renal
K-562 leukemia = system: K-562 leukemia
COLO 205 colon = system: COLO 205 colon
SNB-19 CNS = system: SNB-19 CNS
SK-MEL-2 melanoma = system: SK-MEL-2 melanoma
NCI-H460 lung = system: NCI-H460 lung
DU-145 prostate = system: DU-145 prostate
HCC-2998 colon = system: HCC-2998 colon
A549 NSCLC = system: A549 NSCLC
TK-10 renal = system: TK-10 renal
A498 renal = system: A498 renal
T-47D breast = system: T-47D breast
SF-295 CNS = system: SF-295 CNS
MDA-MB-435 = system: MDA-MB-435
MCF7 breast = system: MCF7 breast
KM12 colon = system: KM12 colon
NCI-H226 lung = system: NCI-H226 lung
PC-3 prostate = system: PC-3 prostate
NCI-H522 lung = system: NCI-H522 lung
ACHN renal = system: ACHN renal
UACC-62 melanoma = system: UACC-62 melanoma
OVCAR-5 ovarian = system: OVCAR-5 ovarian
HL-60(TB) leukemia = system: HL-60(TB) leukemia
LOX IMVI melanoma = system: LOX IMVI melanoma
NCI-H23 lung = system: NCI-H23 lung
MOLT-4 leukemia = system: MOLT-4 leukemia
HCT-15 colon = system: HCT-15 colon
HOP-62 NSCLC = system: HOP-62 NSCLC
EKVX NSCLC = system: EKVX NSCLC
NCI/ADR-RES ovarian = system: NCI/ADR-RES ovarian
RPMI-8226 leukemia = system: RPMI-8226 leukemia
BT-549 breast = system: BT-549 breast
MDA-MB-231 breast = system: MDA-MB-231 breast
SF-268 CNS = system: SF-268 CNS
SK-OV-3 ovarian = system: SK-OV-3 ovarian
UACC-257 melanoma = system: UACC-257 melanoma
U251 CNS = system: U251 CNS
SR leukemia = system: SR leukemia
SN12C renal = system: SN12C renal
HOP-92 NSCLC = system: HOP-92 NSCLC
CAKI-1 renal = system: CAKI-1 renal
IGROV1 ovarian = system: IGROV1 ovarian
MALME-3M melanoma = system: MALME-3M melanoma
OVCAR-3 ovarian = system: OVCAR-3 ovarian
786-0 renal = system: 786-0 renal
HS 578T breast = system: HS 578T breast
MDA-MB-468 breast = system: MDA-MB-468 breast
RXF 393 renal = system: RXF 393 renal
HCT-116 colon = system: HCT-116 colon
M14 melanoma = system: M14 melanoma
HT29 colon = system: HT29 colon
OVCAR-8 ovarian = system: OVCAR-8 ovarian

Work on `Cc1cc2c(c(O)c1Br)-c1ncoc1C(=O)[C@]1(C)CC[C@H](C(C)C)[C@H]21` yielded a GI50 (CCRF-CEM leukemia) of 4.14 µM, a TGI (CCRF-CEM leukemia) of 27.1 µM and a GI50 (OVCAR-4 ovarian) of 4.1 µM. The TGI (OVCAR-4 ovarian) was 33.7 µM, the GI50 (SF-539 CNS) was 4.08 µM and the TGI (SF-539 CNS) was 14.9 µM. The GI50 (SW-620 colon) was 3.38 µM, the TGI (SW-620 colon) was 17 µM and the GI50 (SK-MEL-5 melanoma) was 2.95 µM. For the same compound, the TGI (SK-MEL-5 melanoma) was 10.3 µM, the GI50 (SK-MEL-28 melanoma) was 4.37 µM and the TGI (SK-MEL-28 melanoma) was 18.4 µM. It also gave a GI50 (UO-31 renal) of 5 µM, a TGI (UO-31 renal) of 24.8 µM and a GI50 (K-562 leukemia) of 2.93 µM. It also gave a TGI (K-562 leukemia) of 11.6 µM, a GI50 (COLO 205 colon) of 2.61 µM and a TGI (COLO 205 colon) of 10.3 µM. It also gave a GI50 (SNB-19 CNS) of 7.35 µM, a TGI (SNB-19 CNS) of over 100 µM and a GI50 (SK-MEL-2 melanoma) of 2.51 µM. The TGI (SK-MEL-2 melanoma) was 8.15 µM, the GI50 (NCI-H460 lung) was 3.33 µM and the TGI (NCI-H460 lung) was 14.5 µM. It also gave a GI50 (DU-145 prostate) of 5 µM, a TGI (DU-145 prostate) of 21.2 µM and a GI50 (HCC-2998 colon) of 4.22 µM. It also gave a TGI (HCC-2998 colon) of 17.7 µM, a GI50 (A549 NSCLC) of 4.33 µM and a TGI (A549 NSCLC) of 29.6 µM. For the same compound, the GI50 (TK-10 renal) was 9.26 µM, the TGI (TK-10 renal) was 74.3 µM and the GI50 (A498 renal) was over 100 µM. For the same compound, the TGI (A498 renal) was over 100 µM, the GI50 (T-47D breast) was 2.89 µM and the TGI (T-47D breast) was 21.2 µM. It also gave a GI50 (SF-295 CNS) of 3.31 µM, a TGI (SF-295 CNS) of 18 µM and a GI50 (MDA-MB-435) of 2.07 µM. For the same compound, the TGI (MDA-MB-435) was 5.23 µM, the GI50 (MCF7 breast) was 3.45 µM and the TGI (MCF7 breast) was 15.2 µM. The GI50 (KM12 colon) was 3.49 µM, the TGI (KM12 colon) was 35.6 µM and the GI50 (NCI-H226 lung) was 5.88 µM. The TGI (NCI-H226 lung) was 22.1 µM, the GI50 (PC-3 prostate) was 3.1 µM and the TGI (PC-3 prostate) was 20.5 µM. For the same compound, the GI50 (NCI-H522 lung) was 2.18 µM, the TGI (NCI-H522 lung) was 6.24 µM and the GI50 (ACHN renal) was 10.1 µM. It also gave a TGI (ACHN renal) of 34 µM, a GI50 (UACC-62 melanoma) of 2.46 µM and a TGI (UACC-62 melanoma) of 8.58 µM. It also gave a GI50 (OVCAR-5 ovarian) of 5.36 µM, a TGI (OVCAR-5 ovarian) of 23.1 µM and a GI50 (HL-60(TB) leukemia) of 2.19 µM. The TGI (HL-60(TB) leukemia) was 6.69 µM, the GI50 (LOX IMVI melanoma) was 3.71 µM and the TGI (LOX IMVI melanoma) was 14.5 µM. The GI50 (NCI-H23 lung) was 4.64 µM, the TGI (NCI-H23 lung) was 47.3 µM and the GI50 (MOLT-4 leukemia) was 3.18 µM. The TGI (MOLT-4 leukemia) was 14.9 µM, the GI50 (HCT-15 colon) was 2.62 µM and the TGI (HCT-15 colon) was 11.8 µM. For the same compound, the GI50 (HOP-62 NSCLC) was 4.45 µM, the TGI (HOP-62 NSCLC) was 21.7 µM and the GI50 (EKVX NSCLC) was 6.77 µM. It also gave a TGI (EKVX NSCLC) of 28.6 µM, a GI50 (NCI/ADR-RES ovarian) of 2.82 µM and a TGI (NCI/ADR-RES ovarian) of 9.19 µM. For the same compound, the GI50 (RPMI-8226 leukemia) was 3.35 µM, the TGI (RPMI-8226 leukemia) was 15.7 µM and the GI50 (BT-549 breast) was 4.64 µM. It also gave a TGI (BT-549 breast) of 17.1 µM, a GI50 (MDA-MB-231 breast) of 4.36 µM and a TGI (MDA-MB-231 breast) of 18.8 µM. It also gave a GI50 (SF-268 CNS) of 4.27 µM, a TGI (SF-268 CNS) of 34.3 µM and a GI50 (SK-OV-3 ovarian) of 6.72 µM. It also gave a TGI (SK-OV-3 ovarian) of over 100 µM, a GI50 (UACC-257 melanoma) of 3.58 µM and a TGI (UACC-257 melanoma) of 18.7 µM. The GI50 (U251 CNS) was 4.34 µM, the TGI (U251 CNS) was 17.1 µM and the GI50 (SR leukemia) was 2.14 µM. The TGI (SR leukemia) was 7.25 µM, the GI50 (SN12C renal) was 3.19 µM and the TGI (SN12C renal) was 12.9 µM. It also gave a GI50 (HOP-92 NSCLC) of 1.03 µM, a TGI (HOP-92 NSCLC) of 5.99 µM and a GI50 (CAKI-1 renal) of 4.73 µM. It also gave a TGI (CAKI-1 renal) of 33.6 µM, a GI50 (IGROV1 ovarian) of 4.42 µM and a TGI (IGROV1 ovarian) of 82.4 µM. It also gave a GI50 (MALME-3M melanoma) of 2.61 µM, a TGI (MALME-3M melanoma) of 11.8 µM and a GI50 (OVCAR-3 ovarian) of 3.83 µM. For the same compound, the TGI (OVCAR-3 ovarian) was 13.6 µM, the GI50 (786-0 renal) was 7.18 µM and the TGI (786-0 renal) was 21.9 µM. The GI50 (HS 578T breast) was 5.34 µM, the TGI (HS 578T breast) was over 100 µM and the GI50 (MDA-MB-468 breast) was 2.14 µM. The TGI (MDA-MB-468 breast) was 6.63 µM, the GI50 (RXF 393 renal) was 4.16 µM and the TGI (RXF 393 renal) was 17.7 µM. It also gave a GI50 (HCT-116 colon) of 3.17 µM, a TGI (HCT-116 colon) of 13.8 µM and a GI50 (M14 melanoma) of 2.85 µM. The TGI (M14 melanoma) was 14 µM, the GI50 (HT29 colon) was 2.77 µM and the TGI (HT29 colon) was 16 µM. It also gave a GI50 (OVCAR-8 ovarian) of 5.45 µM and a TGI (OVCAR-8 ovarian) of 22.4 µM.
